{"source": "PubChem BioAssay (NCI)", "note": "Values joined by “and” are separate entries in the source; they are usually repeats but may differ in a detail not shown here. Equal values may be shown once.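 96-well plates; 48 h exposure; 5 concentrations. Endpoints by linear interpolation between flanking doses. Not reached: highest tested concentration assigned. GI50: concentration for 50% inhibition of growth. TGI: total growth inhibition.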"}
{"test_system": "MDA-MB-468 breast", "assay": "NCI anticancer screen, dose series, 48 h"}
{"molecule": "CN1CCC(n2cc(Nc3ncc4c(=O)n(-c5c(Cl)cccc5Cl)cc(Br)c4n3)cn2)CC1", "GI50": "937 nM", "TGI": "7270 nM"}
{"molecule": "CCOc1ccc2c(c1)/C(=C\\C=C\\C1CC(C)C3CC(OCC)CCC3N1CC)CC(C)N2CC", "note": "(configuration not stated)", "GI50": "280 nM", "TGI": "1110 nM"}
{"molecule": "Cc1nc2cc(O)c(O)cc2cc1Oc1ccc(NC(=O)Nc2ccc(Cl)c(Cl)c2)cc1", "GI50": "6990 nM", "TGI": "17400 nM"}
{"molecule": "O=[N+]([O-])c1ccc2[nH]cc(-c3c4ccccc4cc4[nH]c5ccc([N+](=O)[O-])cc5c34)c2c1", "GI50": "2500 nM", "TGI": "7710 nM"}
{"molecule": "CC(C)(C)CC(C)(C)Cc1ccc(OCCOCC[N+](C)(C)Cc2ccccc2)cc1", "GI50": "235 nM", "TGI": "1200 nM"}
{"molecule": "CCCCCCCCSC1=CC(=O)C(OC)=C(OC)C1=O", "GI50": "1430 nM", "TGI": "2970 nM"}
{"molecule": "COC(=O)c1c(-c2ccccc2)csc1NC(=O)c1c(-c2ccccc2)noc1C", "GI50": "3200 nM", "TGI": "> 100000 nM"}
{"molecule": "O=C1NC(=NCCc2ccccc2Cl)S/C1=C\\c1ccc2ncccc2c1", "GI50": "2170 nM", "TGI": "> 18300 nM"}
{"molecule": "CCCCOC(=O)N[C@H]1CCc2cc(OC)c(OC)c(OC)c2-c2ccc(SC)c(=O)cc21", "GI50": "< 10 nM", "TGI": "19400 nM"}
{"molecule": "Cc1ccccc1NC(=O)NC(CC(N)=O)c1ccc2c(c1)nc(-c1cccc(Oc3ccc(C(C)(C)C)cc3)c1)n2CCCN1CCCCC1C", "note": "(configuration not stated)", "GI50": "1780 nM", "TGI": "3280 nM"}
{"molecule": "O=C1NC(=NCc2ccccn2)S/C1=C\\c1ccc2ncccc2c1", "GI50": "5970 nM", "TGI": "> 25000 nM"}
{"molecule": "Nc1nc(Cl)nc2c1ncn2C1O[C@H](CO)[C@@H](O)[C@@H]1F", "note": "(some centres not stated)", "GI50": "387 nM", "TGI": "21800 nM"}
{"molecule": "C=C1C(=O)O[C@H]2[C@H]1CC/C(COC(=O)CCC(=O)OC/C1=C/CC[C@@]3(C)O[C@H]3[C@H]3OC(=O)C(=C)[C@@H]3CC1)=C\\CC[C@@]1(C)O[C@@H]21", "GI50": "1560 nM", "TGI": "4830 nM"}
{"molecule": "Cc1ccc(/C=C2\\CCOC2=O)cc1", "GI50": "> 100000 nM", "TGI": "> 100000 nM"}
{"molecule": "Cn1c(=O)c(F)c(Nc2ccc(I)cc2F)c2c(=O)n(C[C@@H](O)CO)cnc21", "GI50": "1800 nM and 590 nM", "TGI": "8660 nM and > 2090 nM"}
{"molecule": "CCN1C(=O)N(c2c(F)c(OC)cc(OC)c2F)Cc2cnc3[nH]c(CN4CCOCC4)cc3c21", "GI50": "2290 nM", "TGI": "55900 nM"}
{"molecule": "COc1cc(-c2ccc(-c3ccc(C(=N)N)s3)s2)cc(OC)c1OC", "GI50": "1820 nM", "TGI": "3700 nM"}
{"molecule": "COc1ccccc1Nc1nc(-c2cc3cccc(C(F)(F)F)c3oc2=O)cs1", "GI50": "97 nM", "TGI": "710 nM"}
{"molecule": "COc1ccc(/C=N/NC2=NC3C(S2)N(C)C(=O)N3C)cc1", "note": "(configuration not stated)", "GI50": "1950 nM", "TGI": "5350 nM"}
{"molecule": "Oc1ccc2ccccc2c1/C=N\\Nc1ccccn1", "GI50": "1590 nM", "TGI": "4870 nM"}
{"molecule": "COc1ccc(/C=C(/C(=O)N2CCNCC2)c2cc(OC)c(OC)c(OC)c2)cc1O", "GI50": "2270 nM", "TGI": "9710 nM"}
{"molecule": "Cc1ccc2c(n1)C(=O)C(Cl)=C(Nc1ccc(C(C)C)cc1)C2=O", "GI50": "512 nM", "TGI": "1850 nM"}
{"molecule": "C=C1C(=O)O[C@H]2[C@H]1CC/C(Cn1cc(CCC)nn1)=C\\CC[C@@]1(C)O[C@@H]21", "GI50": "3650 nM", "TGI": "14900 nM"}
{"molecule": "CS(=O)(=O)c1nccc(-c2c(-c3cccc(OCc4ccc(Cl)c(C(F)(F)F)c4)c3)nc3sccn23)n1", "GI50": "859 nM", "TGI": "1660 nM"}
{"molecule": "C[n+]1c2ccccc2c(NC2CCNCC2)c2[nH]c3ccccc3c21", "GI50": "200 nM", "TGI": "1260 nM"}
{"molecule": "NC(=O)NC(=O)CI", "GI50": "2480 nM", "TGI": "7730 nM"}
{"molecule": "Cc1ccc(/C=C(\\C#N)n2nnc3cc(F)c(F)cc32)cc1", "GI50": "10300 nM", "TGI": "44400 nM"}
{"molecule": "C=C1C(=O)O[C@@H]2/C=C(/C)C3=CC(=O)[C@@](C)(C[C@H](OC(=O)/C(C)=C\\C)[C@@H]12)O3", "GI50": "1140 nM", "TGI": "5030 nM"}
{"molecule": "CN(C)CCn1cc(-c2ccc3c(Nc4ccc(CC(=O)Nc5cccc(F)c5)cc4)ncnc3c2)cn1", "GI50": "1260 nM", "TGI": "2850 nM"}
{"molecule": "COc1ccc(C2CC(c3cc(OC)c(OC)c(OC)c3)=NN2)cc1", "note": "(configuration not stated)", "GI50": "4350 nM", "TGI": "64500 nM"}
{"molecule": "CSC(=S)N/N=C(\\C)c1ccccn1", "GI50": "68.5 nM", "TGI": "1210 nM"}
{"molecule": "Fc1ccc(Nc2nc(Nc3ccc(-c4nc5ccccc5[nH]4)cc3)nc(N3CCCC3)n2)cc1", "GI50": "2750 nM", "TGI": "6740 nM"}
{"molecule": "Cn1c2ccccc2c2c3c(c4c5ccccc5n(CCCCCC#N)c4c21)C(=O)N(O)C3=O", "GI50": "683 nM", "TGI": "6120 nM"}
{"molecule": "COc1ccc(-n2c(N)c(C(=O)NCCN3CCOCC3)c3nc4ccccc4nc32)cc1OC", "GI50": "17900 nM", "TGI": "> 100000 nM"}
{"molecule": "Nc1nc(N)c2c(n1)NC(c1ccccc1)CC(c1ccc(Nc3nc(NCCO)nc(Nc4ccc(Cl)cc4)n3)cc1)=N2", "note": "(configuration not stated)", "GI50": "1510 nM", "TGI": "2990 nM"}
{"molecule": "COC(=O)c1ccc2c(c1)nc(-c1ccc(Cl)cc1)n2-c1cc(C(C)(C)C)[nH]n1", "GI50": "2400 nM", "TGI": "7980 nM"}
{"molecule": "COc1ccc(C(=O)Nc2cccc(C3CC(=O)c4c(cc(OC)c(OC)c4OC)O3)c2)cc1", "note": "(configuration not stated)", "GI50": "940 nM", "TGI": "> 100000 nM"}
{"molecule": "COc1cccc2c1C(=O)c1c(O)c3c(c(O)c1C2=O)C[C@@](O)(C(C)=O)C[C@@H]3OC1CC(N)C(O)C(C)O1", "note": "(some centres not stated)", "GI50": "62.3 nM", "TGI": "313 nM"}
{"molecule": "Cn1c(=O)c(Cc2ccc(F)cc2F)cc2cnc(NC3CCOCC3)nc21", "GI50": "19600 nM", "TGI": "> 25000 nM"}
{"molecule": "CNCCNc1nc2ccccc2c2c(=O)c3cccc(OC)c3sc12", "GI50": "1450 nM", "TGI": "3060 nM"}
{"molecule": "O=C(CCN1CCCC1)Nc1ccc2c(NCCCCc3ccccc3)c3ccccc3nc2c1", "GI50": "811 nM", "TGI": "2120 nM"}
